Experimental data: US11820762B2, “Compounds as potential therapeutic agents targeting various neurodegenerative diseases” (The Hong Kong University of Science and Technology, priority 2020, dated 2023)

How the values were obtained:
[1] = system: G4C2 RNA foci in (G4C2)29 overexpressed Neuro2a cells; experiment: RNA fluorescent in situ hybridisation, RNA foci numbers; assay type: cell-based; set-up: CAGG (control probe) RNA foci numbers: dose or concentration left out as unconfirmed; settings: for G4C2 RNA foci numbers in cells: 1 g/ml treatment for 2 days; for CAGG (control probe) RNA foci numbers: treatment for 2 days
Description: Neuro2a cells planted on coverslips were transfected with pHR-Tre3G-29xGGGGCC-12xMS2 plasmid (#99149), incubated for 2-3 days and then fixed with 4% paraformaldehyde for 15 min at room temperature. Cells were permeabilised with 0.1% TritonX-100 in PBS for 10 min before hybridisation. Target probe ([…]) (SEQ ID NO: 1) with a 5′-Cy3 and control probe ([…]) (SEQ ID NO: 2) with a 5′-Cy5 were added to the hybridisation solution (0.9M NaCl, 0.02M Tris-HCl, 0.01% SDS, 20% formamide). Cells were then incubated in the mixed solution at 46° C. for 3 h. Cells were washed three times in washing solution (0.02M Tris-HCl, 0.001% SDS, 5 mM EDTA) at 48° C., 15 min each time. Then, cells were stained with primary antibodies (Anti-DNA G-quadruplex (G4) antibody (Cat. No. MABE1126) or Anti-hnRNP H antibody (ab10374)) at 1:500 dilution and incubated at 4° C. overnight. In the next day, cells were washed three times with PBS (10 min each time), and then incubated with secondary antibodies (Alexa 488 anti-mouse for G4 or Alex 488 anti-rabbit for hnRNP H) at 1:500 dilution for 1 h at room temperature. Superfluous secondary antibodies were washed away with PBS for three times (10 min each time). Then cells were incubated with DAPI at 1:5000 dilution for 5 mins and washed with PBS once. Finally, cells on slides were air-dried, mounted in Hydromount medium and analysed by confocal microscopy (Leica, SP8).
Firstly, we confirmed that RNA foci were specifically observed in the (G4C2)29 (SEQ ID NO: 6) overexpressed Neuro2a cells (FIG. 8C).

[2] = Parallel artificial membrane permeability assay (PAMPA); assay type: in vitro ADME; settings: PAMPA
Description: 500 μL of 500 μM test compound and 200 μM Equilibrium Standards for each test compound were prepared. 5 μL DMSO plus 245 μL PBS served as blank control. Firstly, 300 μL PBS was added to each well in the acceptor plate. With the donor plate in its tray, 5 μL 4% Lecithin in Dodecane was added directly to the well membranes of the donor plate. 200 μL of each 500 μM test compound was added to duplicate wells of the donor plate. The donor plate was carefully placed into the acceptor plate wells and incubated at 37° C. for 18 hours. Then the liquid in acceptor plate wells was collected as Acceptor Solution for analysis. Absorbance spectrum from 200 nm to 500 nm in 10 nm intervals was read to determine the peak absorbance of test compounds and blank control.
(§1) In addition, we also tested the permeability on live cells. Neuro2a cells treated with cA at different concentrations (10 μg/ml, 20 μg/ml) for different incubation time (24 h, 48 h) were lysed. Supernatants of cell lysates were collected and analyzed by UPLC-MS. Meanwhile, cell media from different treatment groups were used as control. […] In contrast, the intensity of cA signal was the same in the three corresponding cell media groups (FIG. 25, 4-6).

[3] = system: RNA (G4C2)2 (SEQ ID NO: 8) G4; experiment: 1D 1H-NMR titration of RNA (G4C2)2 G4; assay type: binding; settings: ratios 1:3, 1:5, 1:10
Description: (§2) Single […] were purchased from Integrated DNA Technologies (IDT) and Takara. Single-strand DNA/RNA sample at 100 μM was then annealed by heating up to 95° C. for 15 mins, and slowly cooled to room temperature in the annealing buffer (70 mM KCl, 20 mM potassium phosphate (pH 7.0)) for overnight. The final NMR samples contained 0.1 mM DNA or RNA in 70 mM KCl and 20 mM potassium phosphate buffer (pH 7.0).
The 1D ^1H-NMR spectra were performed at 25° C. All compounds were dissolved in isotope-labeled d6-DMSO (Sigma-Aldrich) at about 50 mM concentration, working as stock solutions. To avoid chemical shift changes of DNA/RNA G4 resulted from d6-DMSO addition, […] d6-DMSO was added into 500 μL of 0.1 mM DNA/RNA G4 solution in the NMR buffer (20 mM potassium phosphate buffer and 70 mM KCl, pH 7.0, 10% D2O) and then 1D ^1H-NMR spectrum was recorded as a reference. During NMR titration experiments of adding each compound into the DNA/RNA G4 solution, the maximal volume of 10 μL of each compound in d6-DMSO solution was regarded as a final data point. […]

Neuro2a cells = experiment: Permeability on live cells (cell lysates analysed by UPLC-MS); assay type: in vitro ADME; settings: 10, 20 μg/ml; 24 h, 48 h; UPLC-MS of lysates
Description: as §1

[4] = system: human telomeric htel23 G4; experiment: 1D 1H-NMR titration of human telomeric htel23 G4; assay type: binding; settings: 1:10 titration
Description: as §2
(§3) The 1D ^1H-NMR spectra were performed at 25° C. All compounds were dissolved in isotope-labeled d6-DMSO (Sigma-Aldrich) at about 50 mM concentration, working as stock solutions. To avoid chemical shift changes of DNA/RNA G4 resulted from d6-DMSO addition, […] d6-DMSO was added into 500 μL of 0.1 mM DNA/RNA G4 solution in the NMR buffer (20 mM potassium phosphate buffer and 70 mM KCl, pH 7.0, 10% D2O) and then 1D ^1H-NMR spectrum was recorded as a reference. During NMR titration experiments of adding each compound into the DNA/RNA G4 solution, the maximal volume of 10 μL of each compound in d6-DMSO solution was regarded as a final data point.
(§4) In addition to the four-repeat G4C2 DNA G4, there are parallel and hybrid G4 conformations formed simultaneously by the two-repeat G4C2 DNA^38,39. […]

[5] = system: DNA (G4C2)2 (SEQ ID NO: 4) G4; experiment: 1D 1H-NMR titration of DNA (G4C2)2 G4; assay type: binding; settings: cA at 1:1, 1:5, 1:10
Description: as §2, §3, §4

[6] = system: human telomeric variant htel21_T18 G4; experiment: 1D 1H-NMR titration of human telomeric variant htel21_T18 G4; assay type: binding; settings: cA at 1:10
Description: as §2, §3, §4

[7] = system: DNA G-quadruplex formed by chicken DNA replication origin; experiment: 1D 1H-NMR titration of chicken DNA G-quadruplex; assay type: binding; settings: 1:3 titration
Description: as §2, §3, §4

Compound | G4C2 RNA foci numbers in cells [1] | CAGG (control probe) RNA foci numbers [1] | permeability (PAMPA) [2] | binding to RNA (G4C2)2 G4 by NMR titration [3] | entry into live cells (Neuro2a cells) | binding to htel23 G4 by NMR titration [4] | binding to DNA (G4C2)2 G4 by NMR titration [5] | binding to htel21_T18 G4 by NMR titration [6] | binding to chicken DNA G-quadruplex by NMR titration [7]
CC(=O)Cc1cc2c(c(O)c1C(=O)O)-c1c(c(O)c3oc4c(O[C@@H]5O[C@H](C(=O)O)[C@@H](O)[C@H](O)[C@H]5O)cccc4c(=O)c3c1O)CC2 [cC, chrexanthomycin C] | significantly reduced | seldomly changed | good permeability |  |  |  |  |  | 
CC(=O)Cc1cc2c(c(O)c1C(=O)O)-c1c(c(O)c3oc4c(O[C@@H]5OC(C(=O)O)=C[C@H](O)[C@H]5O)cccc4c(=O)c3c1O)CC2 [cA, chrexanthomycin A] | significantly reduced | seldomly changed |  | Chemical shift changes were observed | could penetrate cell membrane and enter into cells | no obvious chemical shift changes | neither with 1:1 (light brown), 1:5 (blue) nor 1:10 (pink) titration of cA made significant chemical shift changes | no obvious chemical shift changes | did not show binding
